Each structure is given as a SMILES string. Several values for one entry are separate records, joined by “and”; a condition that tells them apart may be missing. Equal entries are not always repeated.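 Briefly, cells in 96-well plates were exposed to five compound concentrations for 48 h, and endpoints were estimated by linear interpolation. GI50 is the concentration that inhibits growth by half. Definition used: TGI = concentration required for complete inhibition of growth.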 Where only a bound is given, the exact number is not on record here.

The first experiment relates to HCC-2998 colon. As to the kind of experiment: NCI tumour cell line growth inhibition, 48 h.
As for `N#Cc1c(N2CCOCC2)nc(=S)[nH]c1-c1ccco1`, the GI50 is 25.5 µM and the TGI is > 100 µM.
Take `C[C@@H]1CN(Cc2ccc(F)cc2)[C@@H](C)CN1C(=O)c1cc2c(C(=O)C(=O)N(C)C)cn(C)c2cc1Cl`: the GI50 is 17.3 µM and the TGI worked out at 34.4 µM.
With `COc1ccccc1-c1cc(=O)c2cc(C)cnc2[nH]1`, the TGI is > 100 µM.
Consider `O=[N+]([O-])c1ccc(C=Cc2ccccc2)cc1.[C-]#[O+].[C-]#[O+].[C-]#[O+].[Cr]`, for which the GI50 is > 100 µM and the TGI is > 100 µM.
As to `OCC1OC(n2cnc3c(N/N=C\c4ccccn4)ncnc32)C(O)C1O` (configuration not stated), the GI50 was 0.277 µM and the TGI was > 100 µM.
`CC(=O)Nc1ccc(SC#N)c2c(NC(C)=O)cccc12`: the TGI is > 100 µM.
With `COc1cc2c(cc1OCCCn1c(-c3ccccn3)nc3ccccc31)N=C[C@@H]1CCCN1C2=O`, the GI50 is 1.13 µM and the TGI is 2.65 µM.
As for `c1cnn2ncc(-c3ccnc(NCCCN4CCOCC4)n3)c2c1`, the GI50 is 9.29 µM and the TGI is > 25 µM.
The matching figures for `COc1ccc2c(c1)N(CCO)C1=C(C(=O)OC1)C2c1cccc(F)c1` (configuration not stated): 1.07 µM and > 50 µM.
Consider `C=CC(=O)Nc1cccc(Oc2nc(Nc3ccc(N4CCN(C)CC4)cc3)nc3ccsc23)c1`, for which the GI50 is 14.8 µM; the TGI is > 10 µM and 32.3 µM.
On to `COC1C=COC2(C)Oc3c(C)c(O)c4c(c3C2=O)/C(=N/C2CCC(O)OC2C)C=C(NC(=O)/C(C)=C\C(=O)C2CC2C(O)C(C)C(O)C(C)C(OC(C)=O)C1C)C4=O` (configuration not stated), for which the TGI came to 6.88 µM.
For the compound `CC(=O)/C=C/c1cn(C(=O)OC(C)(C)C)c2ccc(Br)cc12`, the GI50 is 18 µM and the TGI turned out to be 37.4 µM.
Take `CCOc1ccccc1C(=O)N1CCN(c2cc(Cl)cc(Cl)c2)CC1`: the GI50 was 0.0381 µM and the TGI was determined as 10.7 µM.
`O=C1c2c(c3c4ccccc4[nH]c3c3ccc4ccccc4c23)C(=O)N1CCN1CCNCC1`: the GI50 was 1.63 µM and the TGI worked out at 3.15 µM.
As for `COc1cc2c(cc1C1COc3cc4occc4cc3C1=O)OCO2` (configuration not stated), the TGI was > 100 µM.
On to `Cc1cc(S(=O)(=O)/N=C(/N)Nc2ccccc2O)c(SCc2ccccc2)cc1Cl`, for which the GI50 was 14.5 µM and the TGI is 29.7 µM.
On to `Cc1c(/C=N/N=C/c2[nH]c(C(=O)OC(C)(C)C)c(C)c2C)[nH]c(C(=O)OC(C)(C)C)c1C`, for which the TGI is > 100 µM.

For the next experiment, the system named is A549 NSCLC. As to the kind of experiment: NCI tumour cell line growth inhibition, 48 h.
On to `N#Cc1c(N2CCOCC2)nc(=S)[nH]c1-c1ccco1`, for which the GI50 is 14.9 µM and the TGI was > 100 µM.
The corresponding values for `C[C@@H]1CN(Cc2ccc(F)cc2)[C@@H](C)CN1C(=O)c1cc2c(C(=O)C(=O)N(C)C)cn(C)c2cc1Cl` are 24 µM and > 92.4 µM.
With `COc1ccccc1-c1cc(=O)c2cc(C)cnc2[nH]1`, the TGI was > 100 µM.
With `O=[N+]([O-])c1ccc(C=Cc2ccccc2)cc1.[C-]#[O+].[C-]#[O+].[C-]#[O+].[Cr]`, the GI50 was 8.69 µM and the TGI was > 100 µM.
The corresponding values for `OCC1OC(n2cnc3c(N/N=C\c4ccccn4)ncnc32)C(O)C1O` (configuration not stated) are 0.399 µM and > 100 µM.
`CC(=O)Nc1ccc(SC#N)c2c(NC(C)=O)cccc12`: the TGI was > 100 µM.
Take `COc1cc2c(cc1OCCCn1c(-c3ccccn3)nc3ccccc31)N=C[C@@H]1CCCN1C2=O`: the GI50 is 1.87 µM and the TGI came to 7.08 µM.
The matching figures for `c1cnn2ncc(-c3ccnc(NCCCN4CCOCC4)n3)c2c1`: 7.7 µM and > 25 µM.
The matching figures for `COc1ccc2c(c1)N(CCO)C1=C(C(=O)OC1)C2c1cccc(F)c1` (configuration not stated): 0.746 µM and > 50 µM.
On to `C=CC(=O)Nc1cccc(Oc2nc(Nc3ccc(N4CCN(C)CC4)cc3)nc3ccsc23)c1`, for which the GI50 was 3.47 µM and 3.71 µM; the TGI was > 10 µM and 17.6 µM.
For `COC1C=COC2(C)Oc3c(C)c(O)c4c(c3C2=O)/C(=N/C2CCC(O)OC2C)C=C(NC(=O)/C(C)=C\C(=O)C2CC2C(O)C(C)C(O)C(C)C(OC(C)=O)C1C)C4=O` (configuration not stated), the TGI was determined as 11.4 µM.
For the compound `CC(=O)/C=C/c1cn(C(=O)OC(C)(C)C)c2ccc(Br)cc12`, the GI50 was 18.8 µM and the TGI turned out to be 52.4 µM.
The corresponding values for `CCOc1ccccc1C(=O)N1CCN(c2cc(Cl)cc(Cl)c2)CC1` are 0.0429 µM and 15.8 µM.
In the case of `O=C1c2c(c3c4ccccc4[nH]c3c3ccc4ccccc4c23)C(=O)N1CCN1CCNCC1`, the GI50 was 1.16 µM and the TGI was determined as 2.64 µM.
`COc1cc2c(cc1C1COc3cc4occc4cc3C1=O)OCO2` (configuration not stated): the TGI is > 100 µM.
Turning to `Cc1cc(S(=O)(=O)/N=C(/N)Nc2ccccc2O)c(SCc2ccccc2)cc1Cl`, the GI50 is 10.2 µM and the TGI is 32.1 µM.
As to `Cc1c(/C=N/N=C/c2[nH]c(C(=O)OC(C)(C)C)c(C)c2C)[nH]c(C(=O)OC(C)(C)C)c1C`, the TGI was > 100 µM.

A further experiment relates to M14 melanoma. The experiment in a line: NCI tumour cell line growth inhibition, 48 h.
As to `N#Cc1c(N2CCOCC2)nc(=S)[nH]c1-c1ccco1`, the GI50 is 12.2 µM and the TGI was > 100 µM.
The corresponding values for `C[C@@H]1CN(Cc2ccc(F)cc2)[C@@H](C)CN1C(=O)c1cc2c(C(=O)C(=O)N(C)C)cn(C)c2cc1Cl` are 13.4 µM and 36.6 µM.
For the compound `COc1ccccc1-c1cc(=O)c2cc(C)cnc2[nH]1`, the TGI was > 100 µM.
As for `O=[N+]([O-])c1ccc(C=Cc2ccccc2)cc1.[C-]#[O+].[C-]#[O+].[C-]#[O+].[Cr]`, the GI50 is 7.58 µM and the TGI is > 100 µM.
As to `OCC1OC(n2cnc3c(N/N=C\c4ccccn4)ncnc32)C(O)C1O` (configuration not stated), the GI50 is 0.426 µM and the TGI came out at 3.89 µM.
As for `CC(=O)Nc1ccc(SC#N)c2c(NC(C)=O)cccc12`, the TGI is > 100 µM.
Consider `COc1cc2c(cc1OCCCn1c(-c3ccccn3)nc3ccccc31)N=C[C@@H]1CCCN1C2=O`, for which the GI50 is 0.92 µM and the TGI stood at 2.8 µM.
Consider `c1cnn2ncc(-c3ccnc(NCCCN4CCOCC4)n3)c2c1`, for which the GI50 is 8.63 µM and the TGI was > 25 µM.
